Measured values taken from patent US6673783B2, “Fusidic acid derivatives” (Leo Pharmaceutical Products Ltd. A/S, priority 2001, dated 2004).
Converted amounts (≈) assume the structure as drawn.

Assays:
[1] = system: S. aureus ATC6538P; assay: MIC, agar diffusion method, S. aureus ATC6538P; assay type: cell-based; conditions: for MIC: Staphylococcus aureus, read-out: MIC value (concentration in μg/ml required for 90% inhibition)
From the text: (§1) In vitro investigations have evidenced high potency of compounds of the invention against several bacteria including Staphylococci, Streptococci, Corynebacteriae, Mycobacteriae and Neisseriae. […] The potency of new fusidic acid analogues are estimated by comparing the inhibition of growth of different microorganisms produced by known concentrations of the analogue to be examined and a reference like fusidic acid. The microbiological assay set up is in agreement with the European Pharmacopoeia 3rd edition (1997). It is an agar diffusion method where the same volume of the tested solution is added to cavities in agar. The inhibition zones are function of the concentration of the fusidic acid analogue used. All assays are run with fusidic acid as reference substance. [drawing 7]

[2] = system: S. aureus ATCC 29213; assay: MIC, agar diffusion method, S. aureus ATCC 29213; assay type: cell-based; conditions: for MIC: Staphylococcus aureus, ATCC29213, read-out: MIC value (concentration in μg/ml required for 90% inhibition)
From the text: as §1

[3] = system: S. aureus CJ232; assay: MIC, agar diffusion method, S. aureus CJ232 (MRSA); assay type: cell-based; conditions: for MIC: Staphylococcus aureus, read-out: MIC value (concentration in μg/ml required for 90% inhibition)
From the text: as §1

[4] = system: S. aureus CJ234 (R); assay: MIC, agar diffusion method, S. aureus CJ234 (R) (MRSA and Rifampicin resistant); assay type: cell-based; conditions: for MIC: Staphylococcus aureus, read-out: MIC value (concentration in μg/ml required for 90% inhibition)
From the text: as §1

[5] = system: S. epidermidis ATCC12228; assay: MIC, agar diffusion method, S. epidermidis ATCC12228; assay type: cell-based; conditions: for MIC: Staphylococcus epidermidis, read-out: MIC value (concentration in μg/ml required for 90% inhibition)
From the text: as §1

[6] = system: Str. pyrogenes Leo id: EC5; assay: MIC, agar diffusion method, Str. pyrogenes Leo id: EC5; assay type: cell-based; conditions: for MIC: read-out: MIC value (concentration in μg/ml required for 90% inhibition)
From the text: as §1

[7] = system: Str. pyrogenes NCTC8304; assay: MIC, agar diffusion method, Str. pyrogenes NCTC8304; assay type: cell-based; conditions: for MIC: read-out: MIC value (concentration in μg/ml required for 90% inhibition)
From the text: as §1

[8] = system: Str.mitis Leo id: EG5; assay: MIC, agar diffusion method, Str.mitis Leo id: EG5; assay type: cell-based; conditions: for MIC: Streptococcus mitis, read-out: MIC value (concentration in μg/ml required for 90% inhibition)
From the text: as §1

[9] = system: Str. sp. ATCC12449; assay: MIC, agar diffusion method, Str. sp. ATCC12449; assay type: cell-based; conditions: for MIC: read-out: MIC value (concentration in μg/ml required for 90% inhibition)
From the text: as §1

[10] = system: Str. sp. Leo id: EF6; assay: MIC, agar diffusion method, Str. sp. Leo id: EF6; assay type: cell-based; conditions: for MIC: read-out: MIC value (concentration in μg/ml required for 90% inhibition)
From the text: as §1

[11] = system: Str. salvarius LEO-ID EG7; assay: MIC, agar diffusion method, Str. salvarius LEO-ID EG7; assay type: cell-based; conditions: for MIC: read-out: MIC value (concentration in μg/ml required for 90% inhibition)
From the text: as §1

[12] = system: Str. faecium Leo-id: E119(P); assay: MIC, agar diffusion method, Str. faecium Leo-id: E119(P) (penicillin resistant); assay type: cell-based; conditions: for MIC: Enterococcus faecium, read-out: MIC value (concentration in μg/ml required for 90% inhibition)
From the text: as §1

[13] = system: several bacteria including Staphylococci, Streptococci, Corynebacteriae, Mycobacteriae and Neisseriae; assay: In vitro antibacterial activity, agar diffusion with fusidic acid as reference; assay type: cell-based; conditions: biological tests, see Table 1
From the text: as §1

[14] = system: bacteria; conditions: reduction of C-24/C-25 and C-17/C-20 double bonds of fusidic acid; von Daehne et al. 1979; cited from earlier work

Row | Compound | MIC value (concentration in μg/ml required for 90% inhibition) [1] | MIC value (concentration in μg/ml required for 90% inhibition) [2] | MIC value (concentration in μg/ml required for 90% inhibition) [3] | MIC value (concentration in μg/ml required for 90% inhibition) [5] | MIC value (concentration in μg/ml required for 90% inhibition) [6] | MIC value (concentration in μg/ml required for 90% inhibition) [7] | MIC value (concentration in μg/ml required for 90% inhibition) [8] | MIC value (concentration in μg/ml required for 90% inhibition) [9] | MIC value (concentration in μg/ml required for 90% inhibition) [10] | MIC value (concentration in μg/ml required for 90% inhibition) [11] | MIC value (concentration in μg/ml required for 90% inhibition) [12] | further results
1 | CC(=O)O[C@H]1C[C@@]2(C)C(CC(O)[C@@H]3C2(C)CCC2C(C)C(O)CC[C@@]23C)C12CC2(CCC=C(C)C)C(=O)O (stereo partly drawn) [Compound 101, 17S,20S-Methanofusidic acid] | – | – | – | – | – | – | – | – | – | – | – | MIC [1]: 0.125 µg/mL (≈ 0.236 µM); MIC [2]: 0.125 µg/mL (≈ 0.236 µM); MIC [3]: 0.125 µg/mL (≈ 0.236 µM); MIC [4]: 0.004 µg/mL (≈ 0.00754 µM); MIC [5]: 0.125 µg/mL (≈ 0.236 µM); MIC [6]: 16 µg/mL (≈ 30.1 µM); MIC [7]: 4 µg/mL (≈ 7.54 µM); MIC [8]: 4 µg/mL (≈ 7.54 µM); MIC [9]: 16 µg/mL (≈ 30.1 µM); MIC [10]: 4 µg/mL (≈ 7.54 µM); MIC [11]: 4 µg/mL (≈ 7.54 µM); MIC [12]: 0.125 µg/mL (≈ 0.236 µM); antibacterial activity compared to that of fusidic acid (1) [13]: comparable antibacterial activity; melting point: 243 to 245 °C
2 | CC(=O)OC1CC2(C)C(CC(O)C3C4(C)CCC(O)C(C)C4CCC32C)C12CC2(CCCC(C)C)C(=O)O (stereo not drawn) [Compound 102, 24,25-Dihydro-17S,20S-methanofusidic acid] | 0.125 µg/mL | 0.25 µg/mL | 0.25 µg/mL | 0.125 µg/mL | 64 µg/mL | 16 µg/mL | 64 µg/mL | 64 µg/mL | 64 µg/mL | 16 µg/mL | 1 µg/mL | MIC value (concentration in μg/ml required for 90% inhibition) [4]: 0.25 µg/mL
3 | CC(=O)OC1CC2(C)C(CC(O)C3C4(C)CCC(=O)C(C)C4CCC32C)C12CC2(CCC=C(C)C)C(=O)O (stereo not drawn) [Compound 104, 3-Dehydro-17S,20S-methanofusidic acid] | 0.125 µg/mL | 0.125 µg/mL | 1.0 µg/mL | 0.125 µg/mL | 64 µg/mL | 16 µg/mL | 64 µg/mL | 64 µg/mL | 64 µg/mL | 64 µg/mL | 0.25 µg/mL | –
4 | CC(C)=CCCC1(C(=O)O)CC12C(OC(=O)C(C)C)CC1(C)C2CC(O)C2C3(C)CCC(O)C(C)C3CCC21C (stereo not drawn) [Compound 107, 16-Deacetoxy-16β-(isopropionyloxy)-17S,20S-methanofusidic acid] | 0.25 µg/mL | 1.0 µg/mL | 1.0 µg/mL | 0.25 µg/mL | 64 µg/mL | 64 µg/mL | 16 µg/mL | 64 µg/mL | 16 µg/mL | 64 µg/mL | 4 µg/mL | –
5 | CCOC1CC2(C)C(CC(O)C3C4(C)CCC(O)C(C)C4CCC32C)C12CC2(CCC=C(C)C)C(=O)O (stereo not drawn) [Compound 110, 16-Deacetoxy-16β-ethoxy-17S,20S-methanofusidic acid] | 0.125 µg/mL | 0.125 µg/mL | 1.0 µg/mL | 0.125 µg/mL | 64 µg/mL | 4 µg/mL | 64 µg/mL | 64 µg/mL | 64 µg/mL | 64 µg/mL | 0.25 µg/mL | MIC value (concentration in μg/ml required for 90% inhibition) [4]: 0.004 µg/mL
6 | CC(=O)O[C@H]1C[C@@]2(C)C(CC(O)[C@@H]3C2(C)CCC2C(C)C(O)CC[C@@]23C)/C1=C(\CCC=C(C)C)C(=O)O (stereo partly shown) [Fusidic acid (1), fusidic acid] | – | – | – | – | – | – | – | – | – | – | – | MIC [1]: 0.125 µg/mL (≈ 0.242 µM); MIC [2]: 0.125 µg/mL (≈ 0.242 µM); MIC [3]: 0.125 µg/mL (≈ 0.242 µM); MIC [4]: 0.004 µg/mL (≈ 0.00774 µM); MIC [5]: 0.125 µg/mL (≈ 0.242 µM); MIC [6]: 4 µg/mL (≈ 7.74 µM); MIC [7]: 4 µg/mL (≈ 7.74 µM); MIC [8]: 4 µg/mL (≈ 7.74 µM); MIC [9]: 4 µg/mL (≈ 7.74 µM); MIC [10]: 4 µg/mL (≈ 7.74 µM); MIC [11]: 4 µg/mL (≈ 7.74 µM); MIC [12]: 0.125 µg/mL (≈ 0.242 µM)
7 | tetrahydrofusidic acid | – | – | – | – | – | – | – | – | – | – | – | antibacterial activity [14]: almost complete loss of activity
